Among the data in patent US20220056019A1, “FARNESOID X RECEPTOR AGONISTS AND USES THEREOF” (Metacrine, Inc., priority 2018, published 2022) are EC50 values, retold here.

The target in the assay is T1, hFXR (Homo sapiens, UniProt Q96RI1).
T1 construct: expressed in transfected cells; host or cells: CV-1 cells
T1 sequence (Q96RI1 1-486): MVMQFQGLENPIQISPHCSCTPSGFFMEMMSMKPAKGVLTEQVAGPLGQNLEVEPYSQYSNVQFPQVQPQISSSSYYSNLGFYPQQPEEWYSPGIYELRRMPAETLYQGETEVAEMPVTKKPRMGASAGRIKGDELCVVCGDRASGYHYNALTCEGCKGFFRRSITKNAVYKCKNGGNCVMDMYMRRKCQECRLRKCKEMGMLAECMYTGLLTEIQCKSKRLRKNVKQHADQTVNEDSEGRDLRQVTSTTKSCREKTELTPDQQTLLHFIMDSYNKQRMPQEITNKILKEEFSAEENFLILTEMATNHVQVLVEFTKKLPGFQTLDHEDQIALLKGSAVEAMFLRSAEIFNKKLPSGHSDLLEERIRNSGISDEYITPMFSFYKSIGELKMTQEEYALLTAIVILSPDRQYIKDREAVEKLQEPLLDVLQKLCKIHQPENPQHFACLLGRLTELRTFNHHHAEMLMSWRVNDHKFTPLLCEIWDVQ
T1 sequence (P19793 1-462 partner): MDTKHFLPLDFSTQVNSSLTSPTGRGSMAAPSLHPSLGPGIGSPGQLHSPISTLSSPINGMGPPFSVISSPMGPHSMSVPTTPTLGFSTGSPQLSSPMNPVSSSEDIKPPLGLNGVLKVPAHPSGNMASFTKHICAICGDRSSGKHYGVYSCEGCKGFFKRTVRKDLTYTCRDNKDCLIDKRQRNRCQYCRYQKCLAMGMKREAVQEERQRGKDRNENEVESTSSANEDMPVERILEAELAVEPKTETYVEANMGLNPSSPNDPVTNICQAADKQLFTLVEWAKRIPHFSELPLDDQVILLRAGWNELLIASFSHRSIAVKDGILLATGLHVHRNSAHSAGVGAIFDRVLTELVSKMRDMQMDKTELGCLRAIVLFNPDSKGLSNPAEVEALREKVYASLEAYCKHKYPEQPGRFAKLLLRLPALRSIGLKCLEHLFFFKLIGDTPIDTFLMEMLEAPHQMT
Put plainly: In Vitro FXR Assay (TK): TK-ECRE-luc reporter in transfected CV-1 cells. The class given is cell-based. Conditions: 18 hrs incubation, luminescence. In short, it runs like this: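 Luminescence from a TK-ECRE-luc reporter was read after 18 h of compound exposure in CV-1 cells. These cells were grown in charcoal-stripped FBS medium and transiently transfected with hFXR, hRXR and YFP expression plasmids.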
By EC50 is commonly meant the concentration needed to bring the measured effect to its halfway point. Higher therefore signals a need for much substance. The compound `COc1ccc(C23CCC(CN(c4cc(-c5cnn(C6(C)CCC6)c5)ccn4)C(=O)[C@H]4CC[C@H](OC(=O)N5CC(CO)C5)CC4)(CC2)CC3)cc1C` [Compound 25.21, 4-(((4-(4-Methoxy-3-methylphenyl)bicyclo[2.2.2]octan-1-yl)methyl)(4-(1-(1-methylcyclobutyl)-1H-pyrazol-4-yl)pyridin-2-yl)carbamoyl)(trans-cyclohexyl) 3-(hydroxymethyl)azetidine-1-carboxylate] displayed an EC50 of no more than 50 nM. Compound `COc1ccc([C@H]2CC[C@H](CN(c3cc(-c4cc(C5CC5)no4)ccn3)C(=O)[C@H]3CC[C@H](OC(=O)N4CC(O)C4)CC3)CC2)cc1C` [Compound 2.38, trans-4-((4-(3-Cyclopropylisoxazol-5-yl)pyridin-2-yl)((trans-4-(4-methoxy-3-methylphenyl)cyclohexyl)methyl)carbamoyl)cyclohexyl 3-hydroxyazetidine-1-carboxylate] had an EC50 of no more than 50 nM.

In the case of `COc1ccc(C23CCC(CN(c4ccc(F)c(-c5cnn(C(C)C)c5)c4)C(=O)[C@H]4CC[C@H](OC(=O)NCCCO)CC4)(CC2)CC3)cc1C` [Compound 25.08, 4-((4-Fluoro-3-(1-isopropyl-1H-pyrazol-4-yl)phenyl)((4-(4-methoxy-3-methylphenyl)bicyclo[2.2.2]octan-1-yl)methyl)carbamoyl)cyclohexyl trans-(3-hydroxypropyl)carbamate], the EC50 was no more than 50 nM. The compound `COc1ccc(C23CCC(CN(c4cncc(-c5cnn(C6(C)CCC6)c5)n4)C(=O)[C@H]4CC[C@H](OC(=O)N5CC(O)C5)CC4)(CC2)CC3)cc1C` [Compound 25.27, 4-(((4-(4-Methoxy-3-methylphenyl)bicyclo[2.2.2]octan-1-yl)methyl)(6-(1-(1-methylcyclobutyl)-1H-pyrazol-4-yl)pyrazin-2-yl)carbamoyl)cyclohexyl trans-3-hydroxyazetidine-1-carboxylate] displayed an EC50 of no more than 50 nM. In the case of `COc1ccc(C23CCC(CN(c4cc(-c5coc(C(C)C)n5)ccn4)C(=O)[C@H]4CC[C@H](OC(=O)N5CC(O)C5)CC4)(CC2)CC3)cc1C` [Compound 4.23, 4-((4-(2-Isopropyloxazol-4-yl)pyridin-2-yl)((4-(4-methoxy-3-methylphenyl)bicyclo[2.2.2]octan-1-yl)methyl)carbamoyl) cyclohexyl 3-hydroxyazetidine-trans-1-carboxylate] it was no more than 50 nM; in that of `CCc1nc(-c2ccnc(N(C[C@H]3CC[C@H](c4ccc(OC)c(C)c4)CC3)C(=O)[C@H]3CC[C@H](OC(=O)NCC(C)(C)O)CC3)c2)co1` [Compound 2.49, trans-4-((4-(2-Ethyloxazol-4-yl)pyridin-2-yl)((trans-4-(4-methoxy-3-methylphenyl)cyclohexyl)methyl)carbamoyl)cyclohexyl (2-hydroxy-2-methylpropyl)carbamate], no more than 50 nM; in that of `COc1ccc(C23CCC(CN(c4cc(-c5nc(C(C)C)no5)ccn4)C(=O)[C@H]4CC[C@H](OC(=O)N5CC(O)C5)CC4)(CC2)CC3)cc1C` [Compound 26.13, 4-((4-(3-isopropyl-1,2,4-oxadiazol-5-yl)pyridin-2-yl)((4-(4-methoxy-3-methylphenyl)bicyclo[2.2.2]octan-1-yl)methyl)carbamoyl)cyclohexyl trans-3-hydroxyazetidine-1-carboxylate], no more than 50 nM.

Compound `COc1ccc([C@H]2CC[C@H](CN(c3cc(-c4cnn(C(C)C)c4)ccn3)C(=O)[C@H]3CC[C@H](OC(=O)NC[C@H](F)CO)CC3)CC2)cc1C` [Compound 2.30, trans-4-((4-(1-Isopropyl-1H-pyrazol-4-yl)pyridin-2-yl)(((trans)-4-(4-methoxy-3-methylphenyl)cyclohexyl)methyl)carbamoyl) cyclohexyl((S)-2-fluoro-3-hydroxypropyl)carbamate] displayed an EC50 of no more than 50 nM. `COc1ccc(C23CCC(CN(c4cc(-c5cnc(C6CC6)o5)ccn4)C(=O)[C@H]4CC[C@H](OC(=O)N5CC(O)C5)CC4)(CC2)CC3)cc1C` [Compound 4.24, 4-((4-(2-Cyclopropyloxazol-5-yl)pyridin-2-yl)((4-(4-methoxy-3-methylphenyl)bicyclo [2.2.2]octan-1-yl)methyl)carbamoyl) cyclohexyl 3-hydroxyazetidine-trans-1-carboxylate] displayed an EC50 of no more than 50 nM. Compound `COCC(=O)N[C@H]1CC[C@H](C(=O)N(CC23CCC(c4ccc(OC)c(C)c4)(CC2)CC3)c2cc(-c3cnc(C(C)C)s3)ccn2)CC1` [Compound 9.05, (trans)-N-(4-(2-Isopropylthiazol-5-yl)pyridin-2-yl)-N-((4-(4-methoxy-3-methylphenyl)bicyclo[2.2.2]octan-1-yl)methyl)-4-(2-methoxyacetamido)cyclohexanecar-boxamide] returned a concentration for a half-maximal effect (EC50) of no more than 50 nM. To `CCc1ncc(-c2ccnc(N(CC34CCC(c5ccc(OC)c(C)c5)(CC3)CC4)C(=O)[C@H]3CC[C@H](OC(=O)N4CC(O)C4)CC3)c2)s1` [Compound 4.20, 4-((4-(2-Ethylthiazol-5-yl)pyridin-2-yl)((4-(4-methoxy-3-methylphenyl)bicyclo[2.2.2]octan-1-yl)methyl)carbamoyl) cyclohexyl 3-hydroxyazetidine-trans-1-carboxylate] belongs no more than 50 nM. Compound `COc1ccc([C@H]2CC[C@H](CN(c3cc(-c4cnn(C(C)C)c4)ccn3)C(=O)[C@H]3CC[C@H](OC(=O)N4CC(OC)C4)CC3)CC2)cc1C` [Compound 2.18, trans-4-((4-(1-Isopropyl-1H-pyrazol-4-yl)pyridin-2-yl) ((trans-4-(4-methoxy-3-methylphenyl)cyclohexyl)methyl)carbamoyl) cyclohexyl 3-methoxyazetidine-1-carboxylate] yielded an EC50 of no more than 50 nM. For the compound `COc1ccc(C23CCC(CN(c4cc(-c5cnn(C(C)C)c5)ccn4)C(=O)[C@H]4CC[C@H](OC(=O)N5CC(S(C)(=O)=O)C5)CC4)(CC2)CC3)cc1C` [Compound 4.11, 4-((4-(1-Isopropyl-1H-pyrazol-4-yl)pyridin-2-yl)((4-(4-methoxy-3-methylphenyl)bicyclo [2.2.2]octan-1-yl)methyl)carbamoyl)cyclohexyl 3-(methylsulfonyl) azetidine-trans-1-carboxylate], the EC50 is no more than 50 nM. In the case of `CCc1nc(-c2ccnc(N(C[C@H]3CC[C@H](c4ccc(OC)c(C)c4)CC3)C(=O)[C@H]3CC[C@H](OC(=O)N4CC(O)C4)CC3)c2)co1` [Compound 2.36, trans-4-((4-(2-Ethyloxazol-4-yl)pyridin-2-yl)((trans-4-(4-methoxy-3-methylphenyl)cyclohexyl)methyl)carbamoyl)cyclohexyl 3-hydroxyazetidine-1-carboxylate] it was no more than 50 nM; in that of `COc1ccc(C23CCC(CN(c4cc(-c5cnn(C(C)C)c5)ccn4)C(=O)[C@H]4CC[C@H](OC(=O)NCCC(C)(C)O)CC4)(CC2)CC3)cc1C` [Compound 4.08, 4-((4-(1-Isopropyl-1H-pyrazol-4-yl)pyridin-2-yl)((4-(4-methoxy-3-methylphenyl)bicyclo [2.2.2]octan-1-yl)methyl)carbamoyl)cyclohexyl (3-hydroxy-3-methylbutyl)trans-carbamate], no more than 50 nM.

Compound `COc1ccc(C23CCC(CN(c4cc(-c5cnn(C(C)C)c5)ccn4)C(=O)[C@H]4CC[C@H](NC(=O)OC(C)C)CC4)(CC2)CC3)cc1C` [Compound 8.02, (trans)-Isopropyl (4-((4-(1-isopropyl-1H-pyrazol-4-yl)pyridin-2-yl)((4-(4-methoxy-3-methylphenyl)bicyclo[2.2.2]octan-1-yl)methyl)carbamoyl)cyclohexyl)car-bamate] showed an EC50 of no more than 50 nM. On to `COc1ccc(C23CCC(CN(c4cc(-c5cnn(C(C)C)c5)ccn4)C(=O)[C@H]4CC[C@H](OC(=O)N5CC(N(C)C)C5)CC4)(CC2)CC3)cc1C` [Compound 4.12, 4-((4-(1-Isopropyl-1H-pyrazol-4-yl)pyridin-2-yl)((4-(4-methoxy-3-methylphenyl)bicyclo [2.2.2]octan-1-yl)methyl)carbamoyl)cyclohexyl 3-(dimethylamino) azetidine-trans-1-carboxylate], for which the concentration giving a half-maximal response (EC50) is no more than 50 nM. With `COc1ccc(C23CCC(CN(C(=O)N4CCC(OC(=O)N5CC(O)C5)CC4)c4cc(-c5cnn(C(C)C)c5)ccn4)(CC2)CC3)cc1C` [Compound 27, 1-((4-(1-Isopropyl-1H-pyrazol-4-yl)pyridin-2-yl)((4-(4-methoxy-3-methylphenyl)bicyclo[2.2.2]octan-1-yl)methyl)carbamoyl)piperidin-4-yl 3-hydroxyazetidine-1-carboxylate], the 50% effective concentration (EC50) was no more than 50 nM.
